# Experimental data: US20100022613A1, “Compounds Having CRTH2 Antagonist Activity” (Oxagen Limited, priority 2008, published 2010)
# Key:
# [1] = biological target: T1, CRTH2 receptor (Homo sapiens, UniProt Q9Y5Y4); experiment: Radioligand binding assay ([3H]PGD2) on CHO/CRTH2 cell membranes; settings: [3H]PGD2 binding
# T1 construct: expressed in transfected cells; host or cells: Chinese Hamster Ovary (CHO) cells, membranes
# T1 sequence (Q9Y5Y4 1-395): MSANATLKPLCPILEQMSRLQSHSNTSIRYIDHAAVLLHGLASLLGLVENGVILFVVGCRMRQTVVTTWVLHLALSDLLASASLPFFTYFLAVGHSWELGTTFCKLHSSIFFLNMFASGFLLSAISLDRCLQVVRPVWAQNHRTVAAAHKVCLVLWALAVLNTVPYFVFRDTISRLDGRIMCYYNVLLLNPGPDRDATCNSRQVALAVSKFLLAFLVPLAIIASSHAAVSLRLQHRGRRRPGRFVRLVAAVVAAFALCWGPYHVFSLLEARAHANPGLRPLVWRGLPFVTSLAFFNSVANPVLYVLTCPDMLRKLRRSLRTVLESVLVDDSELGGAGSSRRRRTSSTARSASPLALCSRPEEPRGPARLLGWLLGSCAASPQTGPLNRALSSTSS
# Experimental: Chinese Hamster Ovary cells were transfected with CRTH2 or DP receptors (CHO/CRTH2 and CHO/DP) and were maintained in culture in a humidified atmosphere at 37° C. (5% CO2) in Minimum Essential Medium (MEM) supplemented with 10% foetal bovine serum, 2 mM glutamine, and 1 mg ml^−1 active G418. The cells were passaged every 2-3 days. For radioligand binding assay, cells were prepared in triple-layer flasks or in 175 cm^2 square flasks (for membrane preparation).
# Membranes were prepared either from CHO/CRTH2 and CHO/DP cells, or from platelets (as a source of TP receptors). CHO cells grown to confluency were washed with PBS and detached using a Versene solution (15 ml per flask). When the cells were grown in 175 cm^2 square flask, they were collected by scrapping in PBS. The cell suspensions were centrifuged (1,700 rpm, 10 min, 4° C.) and resuspended in 15 ml of buffer (1× HBSS, supplemented with 10 mM HEPES, pH 7.3). Cell suspensions were then homogenised using an Ultra Turrax at setting 4-6 for 20 s. The homogenate was centrifuged at 1,700 rpm for 10 min and the supernatant was collected and centrifuged at 20,000 rpm for 1 h at 4° C. The resulting pellet was resuspended in buffer and stored at −80° C. in aliquots of 200-500 μl. The protein concentration was determined by the method of Bradford (1976), using bovine serum albumin as standard. The platelets were washed by centrifugation at 600×g for 10 min and resuspended in ice-cold assay buffer (10 mM Tris-HCl, pH 7.4, 5 mM Glucose, 120 mM NaCl, 10 μM indomethacin) and directly centrifuged at 20,000 rpm for 30 min at 4° C. The resulting pellet was treated as described above.
# [^3H]PGD2 (160 Ci/mmol) binding experiments were performed on membranes prepared as described above. Assays were performed in a final volume of 100 μl of buffer (1× HBSS/HEPES 10 mM, pH 7.3). Cell membranes (15 μg) were preincubated at room temperature with varying concentration of competing ligand for 15 min. [^3H]PGD2 was then added and the incubation continued for a further one hour at room temperature. The reaction was terminated by the addition of 200 μl ice-cold assay buffer to each well, followed by rapid filtration through Whatman GF/B glass fibre filters using a Unifilter Cell harvester (PerkinElmer Life Sciences) and six washes of 300 μl of ice-cold buffer. The Unifilter plates were dried at room temperature for at least 1 h and the radioactivity retained on the filters was determined on a Beta Trilux counter (PerkinElmer Life Sciences), following addition of 40 μl of Optiphase Hi-Safe 3 (Wallac) liquid scintillation. Non specific binding was defined in the presence of 10 μM unlabelled PGD2. Assays were performed in duplicate.
# [2] = tested on: PGD2-induced eosinophil shape change; experiment: Human whole blood eosinophil shape change assay (PGD2-induced); type: cell-based; settings: 10 nM PGD2, read-out: IC50 for the effect on 10 nM PGD2-induced eosinophil shape change in whole blood
# Experimental: Compounds 1-6 were assayed for their effect on PGD2 induced eosinophil shape change.
# Compounds (1 μl, 200× final concentration) were added directly to 200 μl whole blood, mixed well and incubated for 15 min, 37° C., 5% CO2. After this time, cell shape was fixed by addition of 300 μl Cytofix™ buffer (BD Biosciences), 15 min on ice. 10 ml RBC lysis buffer was added to the fixed cells, incubated 5 min, at room temperature and centrifuged, 300×g for 5 min. Supernatant (containing lysed red cells) was removed and the lysis step was repeated. Leukocytes were resuspended in 250 μl RPMI/10% FCS and shape change analysed by FACS. Eosinophils were gated out based on their autofluorescence and 2000 eosinophil events were counted per sample. Data were analysed in triplicate.
Ki [1],IC50 [2],SMILES
1 nM,1 nM,"Cc1c(Cc2ccc(S(=O)(=O)Cc3ccccc3)cc2)c2cc(F)ccc2n1CC(=O)O [Compound 1, 2-(3-(4-(Benzylsulfonyl)benzyl)-5-fluoro-2-methyl-1H-indol-1-yl)acetic acid]"
1 nM,,"Cc1c(Cc2cccc(S(=O)(=O)Cc3ccc(F)cc3)c2)c2cc(F)ccc2n1CC(=O)O [Compound 4, 2-(5-Fluoro-3-(3-(4-fluorobenzylsulfonyl)benzyl)-2-methyl-1H-indol-1-yl)acetic acid]"
3 nM,12 nM,"Cc1c(Cc2ccccc2S(=O)(=O)Cc2ccccc2)c2cc(F)ccc2n1CC(=O)O [Compound 5, 2-(3-(2-(Benzylsulfonyl)benzyl)-5-fluoro-2-methyl-1H-indol-1-yl)acetic acid]"
3 nM,3 nM,"Cc1c(Cc2ccc(S(=O)(=O)Cc3ccc(F)cc3)cc2)c2cc(F)ccc2n1CC(=O)O [Compound 6, 2-(3-(4-(4-Fluorobenzylsulfonyl)benzyl)-5-fluoro-2-methyl-1H-indol-1-yl)acetic acid]"
5 nM,,"Cc1c(Cc2ccc(S(=O)(=O)Cc3ccc(Cl)cc3)cc2)c2cc(F)ccc2n1CC(=O)O [Compound 2, 2-(3-(4-(4-Chlorobenzylsulfonyl)benzyl)-5-fluoro-2-methyl-1H-indol-1-yl)acetic acid]"
3 nM,77 nM,"Cc1c(Cc2cccc(S(=O)(=O)Cc3ccccc3)c2)c2cc(F)ccc2n1CC(=O)O [Compound 3, 2-(3-(3-(Benzylsulfonyl)benzyl)-5-fluoro-2-methyl-1H-indol-1-yl)acetic acid]"
